Here are results for one compound from BindingDB's records for patent US20240228491 (Scinnohub Pharmaceutical, 2024).

The structures appear in SMILES notation.

In this assay the target is S-adenosylmethionine synthase isoform type-2 (Homo sapiens, UniProt P31153). The assay can be described thus: Enzymatic Activity Test. How it is done: The specific steps were as follows: The compounds having the test starling concentration of 1 uM or 10 uM were diluted into 10 concentration points in a 3-fold gradient. 250 nL of the solutions of the compounds to be tested with 10 different concentrations were taken and added into a 384 well plate for later use. 20 ug/mL of MAT2a enzyme solution was prepared with Assay buffer (50 mM Tris, 50 mM KCl, 10 mM MgCl2, 0.05% polyoxyethylene lauryl ether, pH 8.0). 15 uL of the MAT2a enzyme solution at 20 ug/mL was add into the wells of the compounds to be tested at different concentrations; and 15 uL of Assay buffer was added into the negative control well. An incubation was carried out for 15 minutes after shaking for mixing well. A mixed substrate solution (comprising 400 uM ATP and 600 uM L-Methionine) was prepared with Assay buffer. 10 uL of the mixed substrate solution was added to the positive control well, the compound to be tested well, and the negative control well, respectively, and the reaction began, for a reaction time of 150 min. Then, 50 uL of the reaction stop solution (BIOMOL Green Reagent Enzo lifesciences, Cargo No. BML-AK111-1000) was added to stop the reaction, followed by being centrifuged at 1000 rpm for 60 s and then being incubated for 15 min. OD620 was read and data were processed.
Chain of S-adenosylmethionine synthase isoform type-2 (P31153 whole entry, canonical isoform): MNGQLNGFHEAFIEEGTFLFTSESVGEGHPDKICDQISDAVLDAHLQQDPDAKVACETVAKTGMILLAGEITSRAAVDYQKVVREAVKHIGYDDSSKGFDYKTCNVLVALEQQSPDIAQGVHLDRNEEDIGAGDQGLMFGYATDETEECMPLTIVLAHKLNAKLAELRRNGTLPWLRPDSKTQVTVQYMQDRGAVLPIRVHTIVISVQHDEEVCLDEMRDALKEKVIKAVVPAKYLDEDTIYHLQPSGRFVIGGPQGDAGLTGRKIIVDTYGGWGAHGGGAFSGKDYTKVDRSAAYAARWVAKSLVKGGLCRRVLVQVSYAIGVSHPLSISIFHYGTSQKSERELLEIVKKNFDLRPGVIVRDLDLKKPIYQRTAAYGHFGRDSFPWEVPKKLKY

`CNc1c(-c2ccsc2)c(=O)n(-c2ccccc2)c2nc(C(F)(F)F)ccc12` [US20240228491, Example 4] showed an IC50 of 20.2 nM.

For orientation: IC50 means the midpoint of a concentration-inhibition curve. The low end stands for inhibition by little substance, the high end for a need for much substance.
